Source: patent US5882905A, “Thermostable α-L-arabinofuranosidase from Aureobasidium pullulans” (The United States of America as represented by the …, priority 1997, dated 1999)
Several values for one entry are separate records, joined by “and”; a condition that tells them apart may be missing. Identical values can stand only once. Entries after “also recorded” stand apart in the source; their conditions may differ.

Assays:
α-L-AFase [1] = assay: Effect of metal ions and reagents on α-L-AFase activity; assay type: biochemical, Aureobasidium pullulans
Method: (§1) Enzyme assay. αL-arabinofuranosidase (α-L-AFase) activity was assayed in a reaction mixture (1 ml) containing 1 mM p-nitrophenyl α-L-arabinofuranoside (pNPαAF), 50 mM acetate buffer, pH 4.5 and appropriately diluted enzyme solution. After incubation at 50° C. for 30 min, the reaction was stopped by adding ice-cold 0.5M Na2 CO3 (1 ml) and the color formed was measured at 405 nm. One unit (U) of α-L-AFase activity was defined as the amount of enzyme that liberates 1 μmol p-nitrophenol (pNP) per min in the reaction mixture under these assay conditions.
Effect of metal ions and reagents.

[2] = tested on: α-L-AFase from A. nidulans; details: L-Arabinose at 80 mM; Fernandez-Espinar et al.; cited from earlier work
α-L-AFase [3] = assay: Effect of L-arabinose and other sugars on α-L-AFase activity; assay type: biochemical, Aureobasidium pullulans
Method: as §1
Effect of L-arabinose and other sugars.

[4] = tested on: Aureobasidium pullulans Y-21792; assay: Effect of carbon source on growth and α-L-arabinofuranosidase production in shake flasks; assay type: cell-based; details: for Growth (A660) / L-arabinosidase (mU/ml culture) Supernatant / L-arabinosidase (mU/ml culture) Whole broth / time of maximum enzyme production, Supernatant (figure in parenthesis) / time of maximum enzyme production, Whole broth (figure in parenthesis): carbon source 1% w/v, 28° C.; for Growth (A660): 96 h, averages of duplicates; for L-arabinosidase (mU/ml culture) Supernatant / L-arabinosidase (mU/ml culture) Whole broth: maximum in time course; for time of maximum enzyme production, Supernatant (figure in parenthesis) / time of maximum enzyme production, Whole broth (figure in parenthesis): time course over 96 h; for share of the whole culture broth α-L-AFase activity that is extracellular: cultures grown on the named carbon source
Method: Organism, cultivation and enzyme production. The color variant strain NRRL Y-21792 of A. pullulans (also available as NRRL Y-12974) was obtained from the ARS culture collection, NCAUR, Peoria, Ill. The medium used for seed culture and enzyme production was CCY medium (Slininger et al., 1982, Biotechnol. Bioeng., 23:371-384) with the following composition (g/L): 10 ml of solution A, 10 ml of solution B. 100 ml of solution C, 10 g of yeast extract and 10 g of oat spelt xylan. Solution A was a trace mineral solution having the following ingredients (per L): 1.1 g of CaO, 0.4 g of ZnO, 5.4 g of FeCl3.6 H2 O, 0.25 g of CuSO4. 5H2 O, 0.24 g of CoCl2. 6H2 O, 0.06 g of H3 BO3 and 13 ml of concentrated HCl. Solution B (per L) contained 10.1 g of MgO and 45 ml of concentrated HCl. Solution C (per L) contained 64 g of urea, 12 g of KH2 PO4 and 1.8 g of Na2 HPO4. Oat spelt xylan was sterilized separately. The pH of the medium was adjusted to 5.0 with 1M HCl before inoculation. A 125-ml Erlenmeyer flask containing 50 ml of medium with oat spelt xylan (1%, w/v) as a carbon source was inoculated with a loopful of cells taken from a stock slant and incubated at 28° C. on a rotary shaker (200 rpm) for 2 days. The shake flasks (250-ml Erlenmeyer flask containing 100 ml medium with 1% oat spelt xylan) were inoculated with 2 ml of this culture and cultivated on a rotary shaker (200 rpm) at 28° C. After 3 days, the cells were removed from the culture broth by centrifugation (18,000×g, 20 min). The resulting supernatant solution was used as the crude enzyme preparation.
Medium and enzyme production. The media used for seed culture and enzyme production were prepared as described in Example 1 with the exception of the particular carbon source. The shake flasks (125-ml Erlenmeyer flask containing 50 ml medium) were inoculated with 2 ml of seed culture (prepared using L-arabinose as carbon source) and cultivated on a rotary shaker (200 rpm) at 28° C. for 4 days. At intervals, ~2 ml of the whole culture broth were withdrawn, and the cells and unutilized insoluble substrates were removed from the culture broth by centrifugation (18,000×g, 20 min).
Analytical procedures. α-L-AFase activity was assayed as described in Example 1. Cell growth was monitored by measuring optical density of the culture broth at 660 nm (A660).

[5] = target: α-L-AFase from P. capsulatum; details: Filho et al.; read-out: Ki (competitive inhibition); cited from earlier work
purified α-L-AFase [6] = assay: Substrate specificity and kinetic analysis with aryl-glycosides; assay type: biochemical, Aureobasidium pullulans; details: for Relative initial rate of hydrolysis (percentage of that obtained with pNPαAF): substrate 4 mM, enzyme 28 mU/ml, 15 min reaction
Method: as §1
(§2) Other methods. Protein was estimated by the method of Lowry et al. (1951, J. Biol. Chem., 193:265-275) with bovine serum albumin as the standard. Protein in the column effluents was monitored by measuring absorbance at 280 nm. Sodium dodecyl sulfate-polyacrylamide gel electrophoresis (SDS-PAGE) was performed on a 7.5% gel according to Laemmli (1970, Nature, 227:680-685). The molecular weight of the native enzyme was determined by gel filtration on Bio-Gel A-0.5m as described by Andrews (1965, Biochem. J., 91:595-606), using apoferritin (MW 443,000), sweet potato β-amylase (200,000), yeast alcohol dehydrogenase (150,000), bovine serum albumin (66,000) and ovalbumin (45,000) as standard proteins. […] The Km and Vmax values were determined by the double-reciprocal plot method of Lineweaver-Burk (1934, J. Am. Chem. Soc., 56:658-666) using the KINET software program. Arabinose analysis was performed by HPLC (Spectra-Physics, San Jose, Calif.) using an ion moderated partition chromatography column (Aminex HPX-87C). The column was maintained at 85° C., and the sugars were eluted with Milli-Q water at a flow rate of 0.6 ml/min. Peaks were detected by refractive index, and identified and quantified by comparison to retention times of authentic standards (L-arabinose, D-glucose, D-xylose).
Substrate specificity and kinetic analysis. Relative initial rates of hydrolysis of p-nitrophenyl-α-L-arabinopyranoside, p-nitrophenyl-β-D-glucoside, p-nitrophenyl-β-D-glucoside, p-nitrophenyl-β-D-xyloside, p-nitrophenyl-β-D-cellobioside and p-nitrophenyl-β-D-galactoside (4 mM each) by the purified α-L-AFase (28 mU/ml) were 3.4, 2.3, 1.7, 3.1, 0.0, and 0.1%, respectively (expressed as a percentage of that obtained with pNPαAF at pH 4.5 and 75° C., 15 min reaction). The rate dependence of the enzymatic reaction on the pNPαAF concentration at pH 4.5 and 75° C. followed Michaelis-Menten kinetics.

purified α-L-AFase [7] = assay: Hydrolysis of arabinan, debranched arabinan and arabinoxylans (arabinose by HPLC); assay type: biochemical, Aureobasidium pullulans
Method: FIG. 4. Time course of arabinan (1%, w/v) hydrolysis by purified α-L-arabinofuranosidase (0.445 U/ml) from A. pullulans Y-21792 at pH 4.5 and 50° C.
as §2, with “Arabinose analysis was performed by HPLC (Spectra-Physics, San Jose, Calif.) using an ion moderated partition chromatography column (Aminex HPX-87C). The column was maintained at 85° C., and the sugars were eluted with Milli-Q water at a flow rate of 0.6 ml/min.” left out
Hydrolysis of arabinan, debranched arabinan and arabinoxylans. […] Only arabinose was detected in the reaction product. […]

O[C@H](CS)[C@H](O)CS (racemic) [DTT, dithiothreitol, reference compound]
effect on enzyme activity (α-L-AFase [1]; 10 mM): not affected; also recorded: not inhibited

[Ca+2] [Ca^2+]
requirement of metal ion for activity (α-L-AFase [1]; 5 mM): did not require

[Co+2] [Co^2+]
requirement of metal ion for activity (α-L-AFase [1]; 0.5 mM): did not require

O=C[C@H](O)[C@@H](O)[C@@H](O)CO [L-arabinose]
reduction of the hydrolytic activity [2]: 40% | inhibition of α-L-AFase activity (α-L-AFase [3]; up to 1.2M (21.6%)): substantially no inhibition; also recorded: not at all inhibitory; also recorded: not inhibited | Growth (A660) [4]: 7.6 | L-arabinosidase (mU/ml culture) Supernatant [4]: 199 mU/ml culture | L-arabinosidase (mU/ml culture) Whole broth [4]: 500 mU/ml culture | time of maximum enzyme production, Supernatant (figure in parenthesis) [4]: 48 | time of maximum enzyme production, Whole broth (figure in parenthesis) [4]: 58 | share of the whole culture broth α-L-AFase activity that is extracellular [4]: 40% | Ki [5]: 16.4 mM

OC[C@H](O)C(O)[C@@H](O)CO [L-arabitol]
inhibition of α-L-AFase activity (α-L-AFase [3]; each at 0.11M): did not inhibit | Growth (A660) [4]: 7.2 | L-arabinosidase (mU/ml culture) Supernatant [4]: 95 mU/ml culture | L-arabinosidase (mU/ml culture) Whole broth [4]: 441 mU/ml culture | time of maximum enzyme production, Supernatant (figure in parenthesis) [4]: 48 | time of maximum enzyme production, Whole broth (figure in parenthesis) [4]: 34 | share of the whole culture broth α-L-AFase activity that is extracellular [4]: 22%

[Mg+2] [Mg^2+]
requirement of metal ion for activity (α-L-AFase [1]; 5 mM): did not require

[Mn+2] [Mn^2+]
requirement of metal ion for activity (α-L-AFase [1]; 5 mM): did not require

O=C[C@H](O)[C@@H](O)[C@H](O)CO [Xylose]
inhibition of α-L-AFase activity (α-L-AFase [3]; each at 0.11M): did not inhibit | Growth (A660) [4]: 8.0 | L-arabinosidase (mU/ml culture) Supernatant [4]: 88 mU/ml culture | L-arabinosidase (mU/ml culture) Whole broth [4]: 129 mU/ml culture | time of maximum enzyme production, Supernatant (figure in parenthesis) [4]: 48 | time of maximum enzyme production, Whole broth (figure in parenthesis) [4]: 48 | share of the whole culture broth α-L-AFase activity that is extracellular [4]: About 70%

O=C[C@H](O)[C@@H](O)[C@@H](O)[C@H](O)CO [galactose]
inhibition of α-L-AFase activity (α-L-AFase [3]; each at 0.11M): did not inhibit

O=C[C@H](O)[C@@H](O)[C@H](O)[C@H](O)CO [glucose]
inhibition of α-L-AFase activity (α-L-AFase [3]; each at 0.11M): did not inhibit

O=C[C@@H](O)[C@@H](O)[C@H](O)[C@H](O)CO [mannose]
inhibition of α-L-AFase activity (α-L-AFase [3]; each at 0.11M): did not inhibit

O=[N+]([O-])c1ccc(O[C@@H]2OC[C@H](O)[C@H](O)[C@H]2O)cc1 [p-nitrophenyl-α-L-arabinopyranoside]
Relative initial rate of hydrolysis (percentage of that obtained with pNPαAF) (purified α-L-AFase [6]; pH 4.5 and 75° C.): 3.4%

O=[N+]([O-])c1ccc(O[C@@H]2O[C@H](CO)[C@@H](O[C@@H]3O[C@H](CO)[C@@H](O)[C@H](O)[C@H]3O)[C@H](O)[C@H]2O)cc1 [p-nitrophenyl-β-D-cellobioside]
Relative initial rate of hydrolysis (percentage of that obtained with pNPαAF) (purified α-L-AFase [6]; pH 4.5 and 75° C.): 0.0%

O=[N+]([O-])c1ccc(O[C@@H]2O[C@H](CO)[C@H](O)[C@H](O)[C@H]2O)cc1 [p-nitrophenyl-β-D-galactoside]
Relative initial rate of hydrolysis (percentage of that obtained with pNPαAF) (purified α-L-AFase [6]; pH 4.5 and 75° C.): 0.1%

O=[N+]([O-])c1ccc(O[C@@H]2O[C@H](CO)[C@@H](O)[C@H](O)[C@H]2O)cc1 [p-nitrophenyl-β-D-glucoside]
Relative initial rate of hydrolysis (percentage of that obtained with pNPαAF) (purified α-L-AFase [6]; pH 4.5 and 75° C.): 2.3% and 1.7%

O=[N+]([O-])c1ccc(O[C@@H]2OC[C@@H](O)[C@H](O)[C@H]2O)cc1 [p-nitrophenyl-β-D-xyloside]
Relative initial rate of hydrolysis (percentage of that obtained with pNPαAF) (purified α-L-AFase [6]; pH 4.5 and 75° C.): 3.1%

O=C(O)c1cc[c]([Hg][Cl])cc1 [pCMB, p-chloromercuribenzoic acid, reference compound]
effect on enzyme activity (α-L-AFase [1]; 0.2 mM): not affected; also recorded: not inhibited

O=[N+]([O-])c1ccc(O[C@@H]2O[C@@H](CO)[C@H](O)[C@H]2O)cc1 [pNPαAF, p-nitrophenyl α-L-arabinofuranoside]
Vmax (purified α-L-AFase [6]; pH 4.5 and 75° C., reciprocal plot): 6.99 μmol pNP. min^-1.mg^-1 protein | Km (purified α-L-AFase [6]; pH 4.5 and 75° C., reciprocal plot, read-out: apparent Km): 260 µM | Substrate inhibition (purified α-L-AFase [6]; tested up to 8 mM): not observed; also recorded: not inhibited

OC[C@@H](O)[C@H](O)[C@@H](O)CO [xylitol]
inhibition of α-L-AFase activity (α-L-AFase [3]; each at 0.11M): did not inhibit | Growth (A660) [4]: 9.1 | L-arabinosidase (mU/ml culture) Supernatant [4]: 47 mU/ml culture | L-arabinosidase (mU/ml culture) Whole broth [4]: 94 mU/ml culture | time of maximum enzyme production, Supernatant (figure in parenthesis) [4]: 58 | time of maximum enzyme production, Whole broth (figure in parenthesis) [4]: 48

arabinogalactan
Growth (A660) [4]: 3.1 | L-arabinosidase (mU/ml culture) Supernatant [4]: 9 mU/ml culture | L-arabinosidase (mU/ml culture) Whole broth [4]: 45 mU/ml culture | time of maximum enzyme production, Supernatant (figure in parenthesis) [4]: 34 | time of maximum enzyme production, Whole broth (figure in parenthesis) [4]: 34 | arabinose detected by HPLC as product of hydrolysis (purified α-L-AFase [7]): no arabinose was detected
